Measurements reported in US7071185B2, “1,2,3,4,7,8-hexahydro-6H-[1,4]diazepino[6,7,1-ij]quinoline derivatives as antipsychotic and antiobesity agents” (Wyeth, priority 2002, dated 2006).
Counter-ions that a name gives are not always drawn. Like-named read-outs stand apart in the source and are kept apart here.

Key:
[1] = target: T1, human 5-hydroxytryptamine2C (h5HT2C) receptor (Homo sapiens, UniProt P28335); assay: 5HT2C receptor binding ([125I]DOI displacement, CHO cell membranes)
T1 construct: expressed in transfected cells; host or cells: CHO (Chinese Hamster Ovary) cells; membrane preparation
T1 sequence (P28335 33-458): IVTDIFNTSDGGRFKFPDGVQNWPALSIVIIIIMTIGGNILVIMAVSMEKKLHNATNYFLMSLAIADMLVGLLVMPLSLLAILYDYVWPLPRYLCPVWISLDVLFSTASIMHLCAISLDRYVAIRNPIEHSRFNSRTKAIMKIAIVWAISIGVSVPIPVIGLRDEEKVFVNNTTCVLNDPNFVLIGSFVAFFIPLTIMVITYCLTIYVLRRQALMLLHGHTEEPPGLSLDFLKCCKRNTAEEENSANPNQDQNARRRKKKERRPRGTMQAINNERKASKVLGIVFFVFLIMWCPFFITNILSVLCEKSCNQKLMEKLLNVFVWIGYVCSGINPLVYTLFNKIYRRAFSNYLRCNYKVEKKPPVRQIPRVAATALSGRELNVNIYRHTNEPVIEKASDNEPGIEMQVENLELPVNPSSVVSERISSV

Row | Compound | Ki [1] [µM] | melting point | further results
1 | c1cc2c3c(c1)CC1CCCC1N3CCNC2 (stereo not drawn) [Example 1, trans isomer, Trans-1,2,3,4,8,8a,9,10,11,11a-decahydro-cyclopenta[b][1,4]diazapino[6,7,1-ij]quinoline] | 0.071 | – | –
2 | c1cc2c3c(c1)C[C@@H]1CCC[C@@H]1N3CCNC2 (relative stereo) (as salt: HCl) [Example 1, cis isomer, Cis 1,2,3,4,8,8a,9,10,11,11a-decahydro-cyclopenta[b][1,4]diazepino[6,7,1-ij]quinoline] | – | 180 to 190 °C (dec.) | –
3 | COc1cc(CC(C)N)c(OC)cc1I (stereo not shown) [[^125I] DOI, reference compound] | – | – | Kd ([1]; read-out: dissociation constant, KD of [125I] DOI at the human serotonin 5HT2C receptor, saturation binding with increasing concentrations of [125I] DOI): 0.0004 µM
4 | c1cc2c3c(c1)CC1CCCC1N3CCNC2 (stereo not drawn) (as salt: HCl) [Example 1, trans isomer, Trans-1,2,3,4,8,8a,9,10,11,11a-decahydro-cyclopenta[b][1,4]diazapino[6,7,1-ij]quinoline] | – | 190 °C (dec.) | –
5 | c1cc2c3c(c1)CC1CCCCC1N3CCNC2 (stereo not drawn) [Example 2, trans isomer, (Trans)-1,2,3,4,8a,9,10,11,12,12a,-decahydro-8H-[1,4]diazepino[6,7,1-de]acridine] | 0.513 | 95 °C | –
6 | c1cc2c3c(c1)C[C@H]1CCCC[C@H]1N3CCNC2 (relative stereo) (as salt: HCl) [Example 2, cis isomer, (Cis)-1,2,3,4,8a,9,10,11,12,12a,-decahydro-8H-[1,4]diazepino[6,7,1-de]acridine] | – | 150 to 155 °C | –
7 | CSc1ccc2c(c1)C(N1CCN(C)CC1)Cc1ccccc1S2 (stereo not shown) [Methiothepin, reference compound] | – | – | Ki ([1]; [125I]DOI binding, CHO membranes expressing h5HT2C, read-out: Ki (95% confidence interval), reference compounds): 0.0046 µM
8 | c1cc2c3c(c1)C[C@@H]1CCC[C@@H]1N3CCNC2 (relative stereo) [Example 1, cis isomer, Cis 1,2,3,4,8,8a,9,10,11,11a-decahydro-cyclopenta[b][1,4]diazepino[6,7,1-ij]quinoline] | 0.118 | – | –
9 | c1cc2c3c(c1)C[C@H]1CCCC[C@H]1N3CCNC2 (relative stereo) [Example 2, cis isomer, (Cis)-1,2,3,4,8a,9,10,11,12,12a,-decahydro-8H-[1,4]diazepino[6,7,1-de]acridine] | 0.511 | – | –
